What was measured:
[1] = tested on: Conscious Cynomolgus Monkeys; assay: IOP Response in Conscious Cynomolgus Monkeys; type: in vivo, cynomolgus monkey; conditions: right eye
Description: IOP was determined with an Alcon Pneumatonometer after light corneal anesthesia with 0.1% proparacaine. Eyes were washed with saline after each measurement. After a baseline IOP measurement, test compound was instilled in one 30 μL aliquot to the right eyes only of nine cynomolgus monkeys. Vehicle was instilled in the right eyes of six additional animals. Subsequent IOP measurements were taken at 1, 3, and 6 hours.

5HT2A(rat) [2] = molecular target: T1, 5HT2A(rat) (Rattus norvegicus, UniProt P14842); assay: 5HT2 Functional Assay: [Ca2+]i Mobilization (FLIPR, A7r5 cells); type: cell-based; set-up: endogenous in cells; host or cells: A7r5 rat vascular smooth muscle cells; conditions: for EC50: [Ca2+]i mobilization, rat vascular smooth muscle cells A7r5; for Emax: percentage of maximum 5-HT-induced response, A7r5 cells
T1 sequence (P14842 whole entry): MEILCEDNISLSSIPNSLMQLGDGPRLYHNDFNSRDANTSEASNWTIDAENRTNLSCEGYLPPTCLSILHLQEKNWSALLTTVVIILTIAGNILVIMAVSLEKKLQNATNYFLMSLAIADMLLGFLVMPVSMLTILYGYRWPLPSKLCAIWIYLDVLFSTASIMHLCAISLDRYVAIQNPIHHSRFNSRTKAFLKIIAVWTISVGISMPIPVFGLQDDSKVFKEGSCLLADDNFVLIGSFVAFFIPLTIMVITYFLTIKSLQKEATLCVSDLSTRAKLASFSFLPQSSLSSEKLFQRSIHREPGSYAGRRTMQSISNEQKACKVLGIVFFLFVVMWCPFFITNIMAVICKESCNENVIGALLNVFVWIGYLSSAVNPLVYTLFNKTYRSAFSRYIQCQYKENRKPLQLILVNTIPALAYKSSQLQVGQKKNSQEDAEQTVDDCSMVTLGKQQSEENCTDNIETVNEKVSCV
Description: The receptor-mediated mobilization on intracellular calcium ([Ca^2+]i) was studied using the Fluorescence Imaging Plate Reader (FLIPR) instrument. Rat vascular smooth muscle cells, A7r5, were grown in a normal media of DMEM/10% FBS and 10 μg/mL gentamycin. Confluent cell monolayers were trypsinized, pelleted, and re-suspended in normal media. Cells were seeded in a 50 μL volume at a density of 20,000 cells/well in a black wall, 96-well tissue culture plate and grown for 2 days.
On the day of the experiment, one vial of FLIPR Calcium Assay Kit dye was re-suspended in 50 mL of a FLIPR buffer consisting of Hank's Balanced Salt Solution (HBSS), 20 mM HEPES, and 2.5 mM probenecid, pH 7.4. Cells were loaded with the calcium-sensitive dye by addition of an equal volume (50 μL) to each well of the 96-well plate and incubated with dye for 1 h at 23° C.
Compounds were diluted 1:50 in 20% DMSO/20% Ethanol. For “hit” screening, compounds were further diluted 1:10 in FLIPR buffer and tested at a final concentration of 10 μM.
The compound plate and cell plate were placed in the FLIPR instrument. At the beginning of an experimental run, a signal test was performed to check the basal fluorescence signal from the dye-loaded cells and the uniformity of the signal across the plate. The basal fluorescence was adjusted between 8000-12000 counts by modifying the exposure time, the camera F-stop, or the laser power. Instrument settings for a typical assay were the following: laser power 0.3-0.6 W, camera F-stop F/2, and exposure time 0.4 sec. An aliquot (25 μL) of the test compound was added to the existing 100 μL dye-loaded cells at a dispensing speed of 50 μL/sec. Fluorescence data were collected in real-time at 1.0 sec intervals for the first 60 secs and at 6.0 sec intervals for an additional 120 secs.

5HT2A(rat) [3] = molecular target: T1, 5HT2A(rat); assay: 5-HT2 Receptor Binding Assay ([125I]DOI competition, cerebral cortex homogenates); set-up: Aliquots of post mortem rat or human cerebral cortex homogenates (400 μL) dispersed in 50 mM TrisHCl buffer; from tissue; host or cells: post mortem rat cerebral cortex homogenate; conditions: inhibition of [125I]DOI binding
Description: 5-HT2 Receptor Binding Assay
Aliquots of post mortem rat or human cerebral cortex homogenates (400 μL) dispersed in 50 mM TrisHCl buffer (pH 7.4) are incubated with [^125I]DOI (80 pM final) in the absence or presence of methiothepin (10 μM final) to define total and non-specific binding, respectively, in a total volume of 0.5 mL. The assay mixture is incubated for 1 hour at 23° C. in polypropylene tubes and the assays terminated by rapid vacuum filtration over Whatman GF/B glass fiber filters previously soaked in 0.3% polyethyleneimine using ice-cold buffer. Test compounds (at different concentrations) are substituted for methiothepin. Filter-bound radioactivity is determined by scintillation spectrometry on a beta counter. The data are analyzed using a non-linear, iterative curve-fitting computer program [Trends Pharmacol. Sci., 16, 413 (1995)] to determine the compound affinity parameter. The concentration of the compound needed to inhibit the [^125I]DOI binding by 50% of the maximum is termed the IC50 or Ki value.

[4] = 1 hour after dose, 300 μg topical
[5] = 3 hours after dose, 300 μg topical
[6] = 6 hours after dose, 300 μg topical

## C[C@H](N)Cn1ncc2ccc3oc(C(N)=O)cc3c21 [Example 3, 1-((S)-2-Aminopropyl)-1H-furo[2,3-g]indazole-7-carboxylic acid amide]
[1]; [4]
  Percent IOP Reduction ± SEM: 9 ± 4%
[1]; [5]
  Percent IOP Reduction ± SEM: 23 ± 4%
[1]; [6]
  Percent IOP Reduction ± SEM: 27 ± 5%
5HT2A(rat) [2]
  EC50: 158 nM
  Emax: 87%
5HT2A(rat) [3]
  IC50: 2.3 nM

## C[C@H](N)Cn1ncc2ccc3oc(C(=O)NCC(C)(C)CO)cc3c21 [Example 11, 1-((S)-2-Aminopropyl)-1H-furo[2,3-g]indazole-7-carboxylic acid (3-hydroxy-2,2-dimethyl-propyl)-amide]
[1]; [4]
  Percent IOP Reduction ± SEM: 10 ± 5%
[1]; [5]
  Percent IOP Reduction ± SEM: 23 ± 5%
[1]; [6]
  Percent IOP Reduction ± SEM: 26 ± 5%
5HT2A(rat) [2]
  EC50: 74 nM
  Emax: 76%
5HT2A(rat) [3]
  IC50: 1.8 nM

## COc1cc(C[C@@H](C)N)c(OC)cc1I [(R)-DOI, reference compound]
[1]; 1 hour after dose, 100 μg topical
  Percent IOP Reduction ± SEM: 11 ± 5%
[1]; 3 hours after dose, 100 μg topical
  Percent IOP Reduction ± SEM: 25 ± 3%
[1]; 6 hours after dose, 100 μg topical
  Percent IOP Reduction ± SEM: 34 ± 5%

## CNC(=O)c1cc2c(ccc3cnn(C[C@H](C)N)c32)o1.O=C(O)/C=C/C(=O)O [Example 4, 1-((S)-2-Aminopropyl)-1H-furo[2,3-g]indazole-7-carboxylic acid methyl amide fumarate]
[1]; [4]
  Percent IOP Reduction ± SEM: 13 ± 3%
[1]; [5]
  Percent IOP Reduction ± SEM: 30 ± 4%
[1]; [6]
  Percent IOP Reduction ± SEM: 31 ± 4%
other
  melting point: 180 to 182 °C
5HT2A(rat) [2]
  EC50: 54 nM
  Emax: 98%
5HT2A(rat) [3]
  IC50: 0.81 nM

From patent US7476687B2, “Substituted furo[2,3-g]indazoles for the treatment of glaucoma” (Alcon, Inc., priority 2003, dated 2009)
